Experimental data: ChEMBL document CHEMBL5143672, “New diarylpentanoids and chalcones as potential antimicrobial adjuvants” (2022)

tested on: Escherichia coli; assay: Antibacterial activity against Escherichia coli ATCC 25922 assessed as inhibition of bacterial growth by broth microdilution method; assay type: functional; conditions: not given

Row | Compound | MIC
1 | O=C1/C(=C/c2ccccc2F)COC/C1=C\c1ccccc1F | > 64 mg/L
2 | O=C1/C(=C/c2ccc(F)cc2)COC/C1=C\c1ccc(F)cc1 | > 64 mg/L
3 | COc1ccccc1/C=C1\CCC/C(=C\c2ccccc2OC)C1=O | > 64 mg/L
4 | COc1ccc(/C=C2\COC/C(=C\c3ccc(OC)cc3OC)C2=O)c(OC)c1 | > 64 mg/L
5 | COc1cccc(/C=C2\COC/C(=C\c3cccc(OC)c3)C2=O)c1 | > 64 mg/L
6 | O=C1/C(=C/c2ccccc2Br)COC/C1=C\c1ccccc1Br | > 64 mg/L

tested on: Pseudomonas aeruginosa; assay: Antibacterial activity against Pseudomonas aeruginosa ATCC 27853 assessed as inhibition of bacterial growth by broth microdilution method; assay type: functional; conditions: not given

Row | Compound | MIC
7 | O=C1/C(=C/c2ccccc2F)COC/C1=C\c1ccccc1F | > 64 mg/L
8 | O=C1/C(=C/c2ccc(F)cc2)COC/C1=C\c1ccc(F)cc1 | > 64 mg/L
9 | COc1ccccc1/C=C1\CCC/C(=C\c2ccccc2OC)C1=O | > 64 mg/L
10 | COc1ccc(/C=C2\COC/C(=C\c3ccc(OC)cc3OC)C2=O)c(OC)c1 | > 64 mg/L
11 | COc1cccc(/C=C2\COC/C(=C\c3cccc(OC)c3)C2=O)c1 | > 64 mg/L
12 | O=C1/C(=C/c2ccccc2Br)COC/C1=C\c1ccccc1Br | > 64 mg/L

tested on: Salmonella typhimurium; assay: Antibacterial activity against Salmonella enterica serovar typhimurium SL1344 (SE03) assessed as inhibition of bacterial growth by broth microdilution method; assay type: functional, Salmonella enterica subsp. enterica serovar Typhimurium; conditions: not given

Row | Compound | MIC
13 | O=C1/C(=C/c2ccccc2F)COC/C1=C\c1ccccc1F | > 64 mg/L
14 | O=C1/C(=C/c2ccc(F)cc2)COC/C1=C\c1ccc(F)cc1 | > 64 mg/L
15 | COc1ccccc1/C=C1\CCC/C(=C\c2ccccc2OC)C1=O | > 64 mg/L
16 | COc1ccc(/C=C2\COC/C(=C\c3ccc(OC)cc3OC)C2=O)c(OC)c1 | > 64 mg/L
17 | COc1cccc(/C=C2\COC/C(=C\c3cccc(OC)c3)C2=O)c1 | > 64 mg/L
18 | O=C1/C(=C/c2ccccc2Br)COC/C1=C\c1ccccc1Br | > 64 mg/L

tested on: Staphylococcus aureus; assay: Antibacterial activity against Staphylococcus aureus ATCC 25923 assessed as inhibition of bacterial growth by broth microdilution method; assay type: functional; conditions: not given

Row | Compound | MIC
19 | O=C1/C(=C/c2ccccc2F)COC/C1=C\c1ccccc1F | > 64 mg/L
20 | O=C1/C(=C/c2ccc(F)cc2)COC/C1=C\c1ccc(F)cc1 | > 64 mg/L
21 | COc1ccccc1/C=C1\CCC/C(=C\c2ccccc2OC)C1=O | > 64 mg/L
22 | COc1ccc(/C=C2\COC/C(=C\c3ccc(OC)cc3OC)C2=O)c(OC)c1 | > 64 mg/L
23 | COc1cccc(/C=C2\COC/C(=C\c3cccc(OC)c3)C2=O)c1 | > 64 mg/L
24 | O=C1/C(=C/c2ccccc2Br)COC/C1=C\c1ccccc1Br | > 64 mg/L

tested on: Enterococcus faecalis; assay: Antibacterial activity against Enterococcus faecalis ATCC 29212 assessed as inhibition of bacterial growth by broth microdilution method; assay type: functional; conditions: not given

Row | Compound | MIC
25 | O=C1/C(=C/c2ccccc2F)COC/C1=C\c1ccccc1F | > 64 mg/L
26 | O=C1/C(=C/c2ccc(F)cc2)COC/C1=C\c1ccc(F)cc1 | > 64 mg/L
27 | COc1ccccc1/C=C1\CCC/C(=C\c2ccccc2OC)C1=O | > 64 mg/L
28 | COc1ccc(/C=C2\COC/C(=C\c3ccc(OC)cc3OC)C2=O)c(OC)c1 | > 64 mg/L
29 | COc1cccc(/C=C2\COC/C(=C\c3cccc(OC)c3)C2=O)c1 | > 64 mg/L
30 | O=C1/C(=C/c2ccccc2Br)COC/C1=C\c1ccccc1Br | > 64 mg/L

tested on: Staphylococcus aureus; assay: Antibacterial activity against methicillin and ofloxacin-resistant Staphylococcus aureus 272123 assessed as inhibition of bacterial growth by broth microdilution method; assay type: functional; conditions: not given

Row | Compound | MIC
31 | O=C1/C(=C/c2ccccc2F)COC/C1=C\c1ccccc1F | > 64 mg/L
32 | O=C1/C(=C/c2ccc(F)cc2)COC/C1=C\c1ccc(F)cc1 | > 64 mg/L
33 | COc1ccccc1/C=C1\CCC/C(=C\c2ccccc2OC)C1=O | > 64 mg/L
34 | COc1ccc(/C=C2\COC/C(=C\c3ccc(OC)cc3OC)C2=O)c(OC)c1 | > 64 mg/L
35 | COc1cccc(/C=C2\COC/C(=C\c3cccc(OC)c3)C2=O)c1 | > 64 mg/L
36 | O=C1/C(=C/c2ccccc2Br)COC/C1=C\c1ccccc1Br | > 64 mg/L

tested on: Candida albicans; assay: Antifungal activity against Candidia albicans ATCC 10231 assessed as inhibition of fungal growth by broth microdilution method; assay type: functional; conditions: not given

Row | Compound | MIC
37 | O=C1/C(=C/c2ccccc2F)COC/C1=C\c1ccccc1F | > 128 mg/L
38 | O=C1/C(=C/c2ccc(F)cc2)COC/C1=C\c1ccc(F)cc1 | > 128 mg/L
39 | COc1ccccc1/C=C1\CCC/C(=C\c2ccccc2OC)C1=O | > 128 mg/L
40 | COc1ccc(/C=C2\COC/C(=C\c3ccc(OC)cc3OC)C2=O)c(OC)c1 | > 128 mg/L
41 | COc1cccc(/C=C2\COC/C(=C\c3cccc(OC)c3)C2=O)c1 | > 128 mg/L
42 | O=C1/C(=C/c2ccccc2Br)COC/C1=C\c1ccccc1Br | > 128 mg/L

tested on: Aspergillus fumigatus; assay: Antifungal activity against Aspergillus fumigatus ATCC 204305 assessed as inhibition of fungal growth by broth microdilution method; assay type: functional; conditions: not given

Row | Compound | MIC
43 | O=C1/C(=C/c2ccccc2F)COC/C1=C\c1ccccc1F | > 128 mg/L
44 | O=C1/C(=C/c2ccc(F)cc2)COC/C1=C\c1ccc(F)cc1 | > 128 mg/L
45 | COc1ccccc1/C=C1\CCC/C(=C\c2ccccc2OC)C1=O | > 128 mg/L
46 | COc1ccc(/C=C2\COC/C(=C\c3ccc(OC)cc3OC)C2=O)c(OC)c1 | > 128 mg/L
47 | COc1cccc(/C=C2\COC/C(=C\c3cccc(OC)c3)C2=O)c1 | > 128 mg/L
48 | O=C1/C(=C/c2ccccc2Br)COC/C1=C\c1ccccc1Br | > 128 mg/L

tested on: Trichophyton rubrum; assay: Antifungal activity against Trichophyton rubrum FF5 assessed as inhibition of fungal growth by broth microdilution method; assay type: functional; conditions: not given

Row | Compound | MIC
49 | O=C1/C(=C/c2ccccc2F)COC/C1=C\c1ccccc1F | > 128 mg/L
50 | O=C1/C(=C/c2ccc(F)cc2)COC/C1=C\c1ccc(F)cc1 | > 128 mg/L
51 | COc1ccccc1/C=C1\CCC/C(=C\c2ccccc2OC)C1=O | > 128 mg/L
52 | COc1ccc(/C=C2\COC/C(=C\c3ccc(OC)cc3OC)C2=O)c(OC)c1 | > 128 mg/L
53 | COc1cccc(/C=C2\COC/C(=C\c3cccc(OC)c3)C2=O)c1 | > 128 mg/L
54 | O=C1/C(=C/c2ccccc2Br)COC/C1=C\c1ccccc1Br | > 128 mg/L

tested on: Escherichia coli; assay: Antimicrobial adjuvant activity against ESBL-producing Escherichia coli SA/2 assessed as potentiation of cefotaxime-induced antibacterial activity by measuring fold reduction in cefotaxime MIC at 64 ug/ml by broth microdilution method; assay type: functional; conditions: dose 64 µg/ml

Row | Compound | fold change (FC)
55 | O=C1/C(=C/c2ccccc2F)COC/C1=C\c1ccccc1F | 2
56 | O=C1/C(=C/c2ccc(F)cc2)COC/C1=C\c1ccc(F)cc1 | 8
57 | COc1ccc(/C=C2\COC/C(=C\c3ccc(OC)cc3OC)C2=O)c(OC)c1 | 8

tested on: Enterococcus faecalis; assay: Antimicrobial adjuvant activity against Enterococcus faecalis B3/101 assessed as potentiation of vancomycin-induced antibacterial activity by measuring fold reduction in vancomycin MIC at 64 ug/ml by broth microdilution method; assay type: functional; conditions: dose 64 µg/ml

Row | Compound | fold change (FC)
58 | COc1ccccc1/C=C1\CCC/C(=C\c2ccccc2OC)C1=O | 2
59 | COc1cccc(/C=C2\COC/C(=C\c3cccc(OC)c3)C2=O)c1 | 4
60 | O=C1/C(=C/c2ccccc2Br)COC/C1=C\c1ccccc1Br | 2

tested on: Salmonella enterica subsp. enterica serovar Typhimurium; assay: Inhibition of Multidrug resistance efflux pump in Salmonella enterica serovar typhimurium SL1344 (SE03) assessed as relative fluorescence index using ethidium bromide as substrate at 50 uM by fluorescence based analysis; conditions: not given

Row | Compound | RFU
61 | O=C1/C(=C/c2ccccc2F)COC/C1=C\c1ccccc1F | -0.04
62 | O=C1/C(=C/c2ccc(F)cc2)COC/C1=C\c1ccc(F)cc1 | 0.17
63 | COc1ccccc1/C=C1\CCC/C(=C\c2ccccc2OC)C1=O | -0.31
64 | COc1ccc(/C=C2\COC/C(=C\c3ccc(OC)cc3OC)C2=O)c(OC)c1 | -0.15
65 | COc1cccc(/C=C2\COC/C(=C\c3cccc(OC)c3)C2=O)c1 | 0.05
66 | O=C1/C(=C/c2ccccc2Br)COC/C1=C\c1ccccc1Br | -0.02

tested on: not listed separately; assay: Inhibition of Multidrug resistance efflux pump in Staphylococcus aureus 272123 assessed as relative fluorescence index using ethidium bromide as substrate at 50 uM by fluorescence based analysis; conditions: not given

Row | Compound | RFU
67 | O=C1/C(=C/c2ccccc2F)COC/C1=C\c1ccccc1F | -0.08
68 | O=C1/C(=C/c2ccc(F)cc2)COC/C1=C\c1ccc(F)cc1 | -0.11
69 | COc1ccccc1/C=C1\CCC/C(=C\c2ccccc2OC)C1=O | 0.48
70 | COc1ccc(/C=C2\COC/C(=C\c3ccc(OC)cc3OC)C2=O)c(OC)c1 | -0.19
71 | COc1cccc(/C=C2\COC/C(=C\c3cccc(OC)c3)C2=O)c1 | 0.17
72 | O=C1/C(=C/c2ccccc2Br)COC/C1=C\c1ccccc1Br | -0.05

tested on: Staphylococcus aureus; assay: Inhibition of biofilm formation in Staphylococcus aureus ATCC 25923 at 100 uM incubated for 48 hrs by crystal violet staining based analysis; assay type: functional; conditions: not given

Row | Compound | inhibition at 100 µM
73 | COc1ccccc1/C=C1\CCC/C(=C\c2ccccc2OC)C1=O | 0%

tested on: Staphylococcus aureus; assay: Inhibition of biofilm formation in Staphylococcus aureus 272123 at 100 uM incubated for 48 hrs by crystal violet staining based analysis; assay type: functional; conditions: not given

Row | Compound | inhibition at 100 µM
74 | COc1ccccc1/C=C1\CCC/C(=C\c2ccccc2OC)C1=O | 65.9%

tested on: not listed separately; assay: Inhibition of quorum sensing system in Chromobacterium violaceum wild type 85 assessed as reduction in pigment production incubated for 24 to 48 hrs; conditions: time 24-48 hrs

Row | Compound | Activity
75 | COc1ccccc1/C=C1\CCC/C(=C\c2ccccc2OC)C1=O | 0 mm

tested on: Serratia marcescens; assay: Inhibition of quorum sensing system in Serratia marcescens AS-1 assessed as reduction in pigment production incubated for 24 to 48 hrs; conditions: time 24-48 hrs

Row | Compound | Activity
76 | COc1ccccc1/C=C1\CCC/C(=C\c2ccccc2OC)C1=O | 0 mm

tested on: not listed separately; assay: Inhibition of quorum sensing system in Chromobacterium violaceum CV026 assessed as reduction in pigment production co-cultured with Sphingomonas paucimobilis Ezf 10-17 for 24 to 48 hrs; conditions: time 24-48 hrs

Row | Compound | Activity
77 | COc1ccccc1/C=C1\CCC/C(=C\c2ccccc2OC)C1=O | 0 mm
